Laboratory results as given in ChEMBL document CHEMBL1155531, “Structure guided design of 5-arylindazole glucocorticoid receptor agonists and antagonists” (J Med Chem, 2010).

Tests used:
[1] = Relative fraction unbound in mouse assessed as ratio of fraction unbound in mouse at 10 mg/kg, po to IC50 for NF-kappaB transrepression activity in A549 cells expressing MMTV reporter gene; format: ADME, organism-based; design: dose 10 mg/kg, route oral; settings: in vivo
[2] = Oral bioavailability in DBA1 mouse at 1 mg/kg; format: ADME, organism-based; settings: in vivo
Androgen receptor = biological target: T1, Androgen receptor (Homo sapiens, UniProt P10275)
T1 sequence (P10275 whole entry): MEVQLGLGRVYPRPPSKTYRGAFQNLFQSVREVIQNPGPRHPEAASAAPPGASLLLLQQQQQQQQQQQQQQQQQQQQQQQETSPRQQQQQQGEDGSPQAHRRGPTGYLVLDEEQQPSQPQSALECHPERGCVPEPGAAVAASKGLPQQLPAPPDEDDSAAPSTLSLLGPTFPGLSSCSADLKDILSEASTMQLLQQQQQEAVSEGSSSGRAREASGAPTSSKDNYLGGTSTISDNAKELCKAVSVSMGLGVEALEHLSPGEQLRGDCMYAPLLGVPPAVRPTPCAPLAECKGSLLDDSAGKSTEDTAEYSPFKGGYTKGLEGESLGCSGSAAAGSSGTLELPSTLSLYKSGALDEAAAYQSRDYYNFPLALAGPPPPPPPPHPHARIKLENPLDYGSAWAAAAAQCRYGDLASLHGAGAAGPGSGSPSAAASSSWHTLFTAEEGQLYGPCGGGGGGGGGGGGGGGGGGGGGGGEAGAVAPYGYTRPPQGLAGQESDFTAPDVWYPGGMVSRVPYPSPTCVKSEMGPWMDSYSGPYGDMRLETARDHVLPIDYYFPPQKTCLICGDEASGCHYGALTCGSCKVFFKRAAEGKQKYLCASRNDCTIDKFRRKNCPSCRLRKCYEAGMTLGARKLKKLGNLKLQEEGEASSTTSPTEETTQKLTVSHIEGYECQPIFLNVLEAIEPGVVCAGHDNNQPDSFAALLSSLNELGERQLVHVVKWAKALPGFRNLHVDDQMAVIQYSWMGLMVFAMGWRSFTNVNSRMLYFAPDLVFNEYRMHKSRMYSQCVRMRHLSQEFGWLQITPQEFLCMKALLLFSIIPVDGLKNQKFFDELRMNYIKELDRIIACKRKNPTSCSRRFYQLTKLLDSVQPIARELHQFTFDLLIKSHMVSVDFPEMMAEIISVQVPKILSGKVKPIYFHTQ

[3] = Antiinflammatory activity in human primary synovial fibroblasts assessed as inhibition of IL1-induced IL6 release after 18 hrs by MSD technology; format: functional
Mus musculus = test: Inhibition of IL1-induced circulating IL6 release in mouse at 100 mg/kg, po; format: functional
[4] = Plasma concentration in mouse bearing mouse NIH-3T3 cells integrated with MMTV reporter gene at 0.1 mg/kg, po after 1 hr; format: ADME, organism-based, NIH3T3; design: dose 0.1 mg/kg, route oral
[5] = Plasma clearance in DBA1 mouse at 1 mg/kg, po and 1 mg/kg, iv; format: ADME, organism-based
[6] = Relative fraction unbound in mouse assessed as ratio of fraction unbound in mouse at 0.1 mg/kg, po to IC50 for NF-kappaB transrepression activity in A549 cells expressing MMTV reporter gene; format: ADME, organism-based; design: dose 0.1 mg/kg, route oral; settings: in vivo
[7] = Plasma clearance in CD rat at 1 mg/kg, po and 1 mg/kg, iv; format: ADME, organism-based
[8] = Plasma concentration in mouse bearing mouse NIH-3T3 cells integrated with MMTV reporter gene at 1 mg/kg, po after 1 hr; format: ADME, organism-based, NIH3T3; design: dose 1 mg/kg, route oral
[9] = Volume of distribution at steady state in CD rat at 1 mg/kg, po and 1 mg/kg, iv; format: ADME, organism-based; settings: in vivo, read-out: Vdss

## O=S(=O)(Cc1ccccc1)Nc1ccc(-c2ccc3c(cnn3-c3ccc(F)cc3)c2)c(C(F)(F)F)c1
[1]
  fold change (FC): 0.5
[2]
  bioavailability: > 51%
Androgen receptor
  IC50: > 10000 nM
[3]
  IC50: 3.16 nM
Mus musculus
  inhibition in vivo at 100 mg/kg: 57%
[4]
  concentration at 1 h: 25 nM
[5]
  clearance: 8 mL/min/kg
[6]
  fold change (FC): 0.005
[7]
  clearance: 8 mL/min/kg
[8]
  concentration at 1 h: 290 nM
[9]
  Vd: 2 L/kg
